Test results reported in patent publication US12234224B2, “Pyrimidine and pyridine amine compounds and usage thereof in disease treatment” (Epigen Biosciences, Inc., priority 2021, dated 2025).
pIC50: −log10 of the molar value.

These compounds were tested against T1, Recombinant human p70S6K kinase (Homo sapiens, UniProt P23443) (assay: S6K Enzymatic Inhibition Assay (HotSpot kinase assay; called S6K binding assay in Table 2)). Conditions: IC50 class.
T1 construct: purchased ThermoFisher Scientific PV3815
Assay type: biochemical
Protocol: Enzymatic activity was determined using a commercial HotSpot kinase assay. Recombinant human p70S6K kinase was purchased from ThermoFisher Scientific (cat #PV3815). The substrate S6K/RSK2 peptide 2 was synthesized at Genscript [Piscataway, NJ]. In brief, the substrate was prepared in the reaction buffer [20 mM Hepes (pH 7.5), 10 mM MgCl2, 1 mM EGTA, 0.02% Brij35, 0.02 mg/mL BSA, 0.1 mM Na3VO4, 2 mM DTT, 1% DMSO]. Testing compounds were dissolved in 100% DMSO and a serial dilution was conducted in DMSO. The kinase at final concentration of 3 nM was added into the substrate solution and gently mixed. Test compounds were delivered at the appropriate concentrations into the kinase reaction mixture by Echo550, and incubated for 20 minutes at room temperature. ^33P-ATP (Specific activity 10 μCi/μL) was added into the reaction mixture to initiate the reaction. Assay plates were incubated for 2 hours at room temperature. The radioactivity was detected by filter-binding method. Kinase activity data is expressed as the percent remaining kinase activity in test samples compared to vehicle (DMSO) reactions. IC50 curves were plotted and IC50 values were calculated using the GraphPad Prism 4 program based on a sigmoidal dose-response equation.

T1 sequence (P23443 whole entry): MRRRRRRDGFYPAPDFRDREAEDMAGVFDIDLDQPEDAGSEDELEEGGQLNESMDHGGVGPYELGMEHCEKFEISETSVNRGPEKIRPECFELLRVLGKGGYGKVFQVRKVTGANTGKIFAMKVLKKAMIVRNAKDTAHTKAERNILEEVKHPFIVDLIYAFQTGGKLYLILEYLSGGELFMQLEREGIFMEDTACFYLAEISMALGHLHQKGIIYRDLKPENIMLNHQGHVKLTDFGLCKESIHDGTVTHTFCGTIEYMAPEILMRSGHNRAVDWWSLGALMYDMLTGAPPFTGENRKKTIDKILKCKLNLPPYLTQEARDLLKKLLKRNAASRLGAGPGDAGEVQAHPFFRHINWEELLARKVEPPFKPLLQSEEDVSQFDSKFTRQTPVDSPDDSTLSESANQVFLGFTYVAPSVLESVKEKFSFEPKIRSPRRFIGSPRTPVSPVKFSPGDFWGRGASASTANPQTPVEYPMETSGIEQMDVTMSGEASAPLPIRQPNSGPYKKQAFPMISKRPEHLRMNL

Row | Compound | pIC50
1 | NCC(c1ccccc1)n1cc(-c2ncnc(N)c2-c2ccc(Cl)cc2)cn1 (racemic) [Example 6, (±)-6-[1-(2-Amino-1-phenylethyl)-1H-pyrazol-4-yl]-5-(p-chlorophenyl)-4-pyrimidinamine] | > 7.30
2 | Nc1ncnc(-c2cnn(Cc3ccccc3C(F)(F)F)c2)c1-c1ccc(Cl)cc1 [Example 17, 5-(p-Chlorophenyl)-6-(1-{[o-(trifluoromethyl)phenyl]methyl}-1H-pyrazol-4-yl)-4-pyrimidinylamine] | 6.30 to 7.30
3 | Nc1ncnc(-c2cnn(Cc3ccccc3)c2)c1-c1ccc(Cl)cc1 [Example 1, 6-(1-Benzyl-1H-pyrazol-4-yl)-5-(p-chlorophenyl)-4-pyrimidinylamine] | > 7.30
4 | Nc1ncnc(-c2cnn(Cc3ccc(OC(F)(F)F)cc3)c2)c1-c1ccc(Cl)cc1 [Example 20, 5-(p-Chlorophenyl)-6-{1-[(p-trifluoromethoxyphenyl)methyl]-1H-pyrazol-4-yl}-4-pyrimidinylamine] | > 7.30
5 | Nc1ncnc(-c2cnn(Cc3ccc(F)cc3)c2)c1-c1ccc(Cl)cc1 [Example 18, 5-(p-Chlorophenyl)-6-{1-[(p-fluorophenyl)methyl]-1H-pyrazol-4-yl}-4-pyrimidinylamine] | > 7.30
6 | Nc1ncnc(-c2cnn(-c3cccc(Cl)c3)c2)c1-c1ccc(Cl)cc1 [Example 12, 5-(p-Chlorophenyl)-6-[1-(m-chlorophenyl)-1H-pyrazol-4-yl]-4-pyrimidinylamine] | 5.00 to 6.30
7 | Cc1ccccc1-n1cc(-c2ncnc(N)c2-c2ccc(Cl)cc2)cn1 [Example 11, 5-(p-Chlorophenyl)-6-[1-(o-tolyl)-1H-pyrazol-4-yl]-4-pyrimidinylamine] | 6.30 to 7.30
8 | Nc1ncnc(-c2cnn(C(CO)c3ccccc3)c2)c1-c1ccc(Cl)cc1 (racemic) [Example 5, (±)-2-{4-[6-Amino-5-(p-chlorophenyl)-4-pyrimidinyl]-1H-pyrazol-1-yl}-2-phenylethanol] | > 7.30
9 | Nc1ncnc(-c2cnn(Cc3ccccc3F)c2)c1-c1ccc(Cl)cc1 [Example 21, 5-(p-Chlorophenyl)-6-{1-[(o-fluorophenyl)methyl]-1H-pyrazol-4-yl}-4-pyrimidinylamine] | > 7.30
10 | Nc1ncnc(-c2cnn(Cc3cccc(F)c3)c2)c1-c1ccc(Cl)cc1 [Example 15, 5-(p-Chlorophenyl)-6-{1-[(m-fluorophenyl)methyl]-1H-pyrazol-4-yl}-4-pyrimidinylamine] | > 7.30
11 | NC(=O)C(c1ccccc1)n1cc(-c2ncnc(N)c2-c2ccc(Cl)cc2)cn1 (racemic) [Example 8, (±)-{4-[6-Amino-5-(p-chlorophenyl)-4-pyrimidinyl]-1H-pyrazol-1-yl}phenylacetamide] | > 7.30
12 | CN(C)C(=O)C(c1ccccc1)n1cc(-c2ncnc(N)c2-c2ccc(Cl)cc2)cn1 (racemic) [Example 9, (±)-N,N-Dimethyl{4-[6-amino-5-(p-chlorophenyl)-4-pyrimidinyl]-1H-pyrazol-1-yl}phenylacetamide] | 6.30 to 7.30
13 | C=C(c1ccccc1)n1cc(-c2ncnc(N)c2-c2ccc(Cl)cc2)cn1 [Example 7, 5-(p-Chlorophenyl)-6-[1-(1-phenylethenyl)-1H-pyrazol-4-yl]-4-pyrimidinylamine] | > 7.30
14 | Nc1ncnc(-c2cnn(C3CCCCO3)c2)c1-c1ccc(Cl)cc1 (stereo not drawn) [Example 14, 5-(p-Chlorophenyl)-6-[1-(tetrahydro-2H-pyran-2-yl)-1H-pyrazol-4-yl]-4-pyrimidinylamine] | 5.00 to 6.30
15 | Nc1ncnc(-c2cnn(Cc3ccc(C(F)(F)F)cc3)c2)c1-c1ccc(Cl)cc1 [Example 4, 5-(p-Chlorophenyl)-6-(1-{[p-(trifluoromethyl)phenyl]methyl}-1H-pyrazol-4-yl)-4-pyrimidinylamine] | > 7.30
16 | Nc1ncnc(-c2cnn(Cc3ccc(F)cc3F)c2)c1-c1ccc(Cl)cc1 [Example 19, 5-(p-Chlorophenyl)-6-{1-[(2,4-difluorophenyl)methyl]-1H-pyrazol-4-yl}-4-pyrimidinylamine] | > 7.30
17 | Nc1ncnc(-n2cc(C(=O)c3ccccc3)cn2)c1-c1ccc(Cl)cc1 [Example 22, {1-[6-Amino-5-(p-chlorophenyl)-4-pyrimidinyl]-1H-pyrazol-4-yl}phenylmethanone] | 5.00 to 6.30
18 | Cn1cc(-c2ncnc(N)c2-c2ccc(Cl)cc2)cn1 [Example 2, 5-(p-Chlorophenyl)-6-(1-methyl-1H-pyrazol-4-yl)-4-pyrimidinylamine] | 6.30 to 7.30
19 | Nc1ncnc(-c2cnn(-c3ccccc3)c2)c1-c1ccc(Cl)cc1 [Example 10, 5-(p-Chlorophenyl)-6-(1-phenyl-1H-pyrazol-4-yl)-4-pyrimidinylamine] | 6.30 to 7.30
20 | CC(c1cccc(C(F)(F)F)c1)n1cc(-c2ncnc(N)c2-c2ccc(Cl)cc2)cn1 (racemic) [Example 3, (±)-5-(p-Chlorophenyl)-6-(1-{1-[m-(trifluoromethyl)phenyl]ethyl}-1H-pyrazol-4-yl)-4-pyrimidinylamine] | 6.30 to 7.30
21 | Nc1ncnc(-c2cnn(Cc3ccc(Cl)cc3)c2)c1-c1ccc(Cl)cc1 [Example 16, 5-(p-Chlorophenyl)-6-{1-[(p-chlorophenyl)methyl]-1H-pyrazol-4-yl}-4-pyrimidinylamine] | > 7.30

The next lines start with the values.

Row | pIC50 | Compound
22 | 5.00 to 6.30 | Nc1cc(-c2cnn(Cc3ccc(C(F)(F)F)cc3)c2)c(Cl)cn1 [Example 37, 5-Chloro-4-(1-{[p-(trifluoromethyl)phenyl]methyl}-1H-pyrazol-4-yl)-2-pyridylamine]
23 | > 7.30 | COc1ccc(-c2c(N)ncnc2-c2cnn(Cc3ccc(C(F)(F)F)cc3)c2)cc1F [Example 32, 5-(3-Fluoro-4-methoxyphenyl)-6-(1-{[p-(trifluoromethyl)phenyl]methyl}-1H-pyrazol-4-yl)-4-pyrimidinylamine]
24 | > 7.30 | Nc1ncnc(-c2cnn(Cc3ccc(C(F)(F)F)cc3)c2)c1-c1ccc(F)cc1 [Example 25, 5-(p-Fluorophenyl)-6-(1-{[p-(trifluoromethyl)phenyl]methyl}-1H-pyrazol-4-yl)-4-pyrimidinylamine]
25 | 5.00 to 6.30 | CS(=O)(=O)c1ccc(-c2c(N)ncnc2-c2cnn(Cc3ccc(C(F)(F)F)cc3)c2)cc1 [Example 26, 5-[p-(Methylsulfonyl)phenyl]-6-(1-{[p-(trifluoromethyl)phenyl]methyl}-1H-pyrazol-4-yl)-4-pyrimidinylamine]
26 | > 7.30 | Nc1ncnc(-c2cnn(Cc3ccc(C(F)(F)F)cc3)c2)c1-c1ccc(F)c(F)c1 [Example 31, 5-(3,4-Difluorophenyl)-6-(1-{[p-(trifluoromethyl)phenyl]methyl}-1H-pyrazol-4-yl)-4-pyrimidinylamine]
27 | 5.00 to 6.30 | Nc1cc(-c2cnn(Cc3ccc(C(F)(F)F)cc3)c2)ccn1 [Example 36, 4-(1-{[p-(Trifluoromethyl)phenyl]methyl}-1H-pyrazol-4-yl)-2-pyridylamine]
28 | 5.00 to 6.30 | COc1cc(-c2c(N)ncnc2-c2cnn(Cc3ccc(C(F)(F)F)cc3)c2)ccc1F [Example 33, 5-(4-Fluoro-3-methoxyphenyl)-6-(1-{[p-(trifluoromethyl)phenyl]methyl}-1H-pyrazol-4-yl)-4-pyrimidinylamine]
29 | 5.00 to 6.30 | COc1ccc(-c2c(N)ncnc2-c2cnn(Cc3ccc(C(F)(F)F)cc3)c2)cc1Cl [Example 30, 5-(3-Chloro-4-methoxyphenyl)-6-(1-{[p-(trifluoromethyl)phenyl]methyl}-1H-pyrazol-4-yl)-4-pyrimidinylamine]
30 | 5.00 to 6.30 | Nc1ncnc(-c2cnn(Cc3ccc(C(F)(F)F)cc3)c2)c1-c1ccc2c(c1)OC(F)(F)O2 [Example 35, 5-(2,2-Difluoro-2H-1,3-benzodioxol-5-yl)-6-(1-{[p-(trifluoromethyl)phenyl]methyl}-1H-pyrazol-4-yl)-4-pyrimidinylamine]
31 | > 7.30 | Nc1ncnc(-c2cnn(Cc3ccc(C(F)(F)F)cc3)c2)c1-c1ccc(Cl)c(F)c1 [Example 27, 5-(4-Chloro-3-fluorophenyl)-6-(1-{[p-(trifluoromethyl)phenyl]methyl}-1H-pyrazol-4-yl)-4-pyrimidinylamine]
32 | 6.30 to 7.30 | Nc1ncnc(-n2cc(Cc3ccccc3)cn2)c1-c1ccc(Cl)cc1 [Example 23, 6-(4-Benzyl-1H-pyrazol-1-yl)-5-(p-chlorophenyl)-4-pyrimidinylamine]
33 | > 7.30 | Nc1nccc(-c2cnn(Cc3ccc(C(F)(F)F)cc3)c2)c1-c1ccc(Cl)cc1 [Example 39, 3-(p-Chlorophenyl)-4-(1-{[p-(trifluoromethyl)phenyl]methyl}-1H-pyrazol-4-yl)-2-pyridylamine]
34 | 5.00 to 6.30 | Nc1ncnc(-c2cnn(Cc3ccc(C(F)(F)F)cc3)c2)c1-c1ccc(OC(F)(F)F)cc1 [Example 34, 5-(p-Trifluoromethoxyphenyl)-6-(1-{[p-(trifluoromethyl)phenyl]methyl}-1H-pyrazol-4-yl)-4-pyrimidinylamine]
35 | > 7.30 | COc1ccc(-c2c(-c3cnn(Cc4ccc(C(F)(F)F)cc4)c3)ccnc2N)cc1 [Example 38, 3-(p-Methoxyphenyl)-4-(1-{[p-(trifluoromethyl)phenyl]methyl}-1H-pyrazol-4-yl)-2-pyridylamine]
36 | 5.00 to 6.30 | COc1cc(-c2c(N)ncnc2-c2cnn(Cc3ccc(C(F)(F)F)cc3)c2)ccc1Cl [Example 29, 5-(4-Chloro-3-methoxyphenyl)-6-(1-{[p-(trifluoromethyl)phenyl]methyl}-1H-pyrazol-4-yl)-4-pyrimidinylamine]
